According to patent US7629317B2, “Control of growth and repair of gastro-intestinal tissues by gastrokines and inhibitors” (The University of Chicago, priority 2001, dated 2009):
“Also recorded” adds a separate entry of the source.

What was measured:
HAE cells [1] = assay: Growth of human antrum epithelial (HAE) cells (cell count 4 days later); type: cell-based
Method: (§1) To measure growth (left panel), HAE cells were plated in 60-mm dishes. Peptide 77-97 (8 μg/ml), or EGF (50 ng/ml), or both were added to the medium and the number of cells counted 4 days later. […] Values are means±SE for 3 cultures. To measure migration (right panel), cells were grown in 60-mm dishes to prepare a confluent monolayer. The medium was aspirated and replaced with fresh medium containing 0.01% calf serum (CS). The monolayer was mechanically wounded by scraping with a razor blade. Detached cells were removed by aspirating medium, and rinsing the remaining cells twice with fresh medium containing 0.01% CS. Fresh medium (5 ml) containing CS (0.01%) and insulin (100 U/L) was added to wounded cultures. Either peptide 77-97 (8 μg/ml), EGF (50 ng/ml), or both were added to duplicate cultures. Migration was assessed at 24, 48 and 72 hr after wounding by measuring the distance (in mm) that cells had migrated from the wound edge using a microscope eyepiece reticle (10-mm long; 0.1-mm markings). Migrating cells at 12 randomly chosen sites along a 0.25-mm stretch of the wound edge were measured at 40-fold magnification. Migration at 2 different sites was measured for each of 2 separate wounds made in each culture. Values are the mean distance cells moved into the denuded area from the edge of 4 different wounds in 2 cultures±SE.
(§2) To characterize the capacity of gastric and intestinal cells to respond to AMP-18, AGS gastric adenocarcinoma cells, HAE human gastric antrum mucosa primary cultures transformed with SV40 large T antigen, rat diploid small intestinal epithelial cells of the IEC-6 (FIG. 15) and IEC-18 lines, NCI N-87 gastric carcinoma cells, and SK-GT5 gastroesophageal adenocarcinoma cells were studied; human WI-38 fibroblasts and HeLa cells served as non-GI control cell lines. Mitogenesis was assayed by performing cell counts 3 to 4 days after exposing cells to the agent of interest, trypsinizing the culture to prepare single cells, and confirming this while counting them in a hemocytometer.

HAE cells [2] = assay: Wound restitution (migration) of scrape-wounded HAE cell monolayers; type: cell-based, human
Method: as §1
Confluent monolayer cultures were mechanically wounded by scraping with a razor blade, and the distance that cells migrated from the wound edge was measured using a microscope eyepiece reticle.

Caco2/bbe (C2) cells = assay: Transepithelial electrical resistance (TER) of Caco2/bbe (C2) cell monolayers after injury; type: cell-based, human
Method: Panel A: When a stable TER was reached (330 Ω·cm^2) in MDCK cell monolayers the medium was changed to DMEM containing FBS (0.2%), and either peptide 77-97 (8 μg/ml) or EGF (50 ng/ml). After 18 hr, peptide 77-97 or EGF were added to the specified wells. One hour later monochloramine (0.1 mM), like the other agents, was added to the apical and basal compartments of the Transwell. […] Panels B, C: Caco2/bbe (C2) subclone monolayers were grown on collagen-coated polycarbonate filters until a stable TER was reached (225 Ω·cm^2). Spent medium was replaced with fresh medium containing FBS (0.1%) alone or with peptide 77-97 (8 μg/ml). After 18 hr, monochloramine (0.3 mM, B) or indomethacin (0.1 mM, C) was added to both compartments of the Transwell. At time 0, cultures received either vehicle (control), vehicle plus oxidant or indomethacin, or peptide 77-97 and oxidant or indomethacin. TER of injured cultures treated with vehicle decreased by ˜35% at 90 min, whereas peptide-treated cultures declined ˜10%.
C2 cell monolayers were grown in DMEM containing FBS (5%) and transferrin (10 μg/ml) on collagen-coated polycarbonate filters until a stable TER was reached (225 Ωcm^2). At time 0, cells were exposed to no DSS (control), or DSS (4%) in the upper compartment of the Transwell. AMP peptide 77-97 (8 μg/ml) was added to the upper and lower compartments of the Transwell 1 day prior to the addition of DSS at time 0. TER of DSS-injured cultures treated with vehicle decreased by ˜70% at 45 min, whereas peptide-treated cultures declined ˜10% at that time. […] Values are means for ≧6 cultures.
Confluent C2 cell monolayers were prepared on Transwells until a stable TER was established. Medium was replaced with fresh medium containing FBS (0.1%) alone (control), or with either rhAMP-18 (100 nanomolar) or peptide 77-97 (3.7 micromolar). After 18 hr, monochloramine (0.3 mM) was added to both compartments of the Transwell, and cultures received either vehicle (control), vehicle plus oxidant, rhAMP-18 and oxidant, or peptide 77-97 and oxidant, after which TER was measured.
To determine whether AMP peptide could speed recovery of TER after DSS-induced colonic cell injury, a highly sought-after functional characteristic of an agent designed to treat IBD, C2 cell monolayers were exposed to DSS (5%) for 10 min which reduced TER to 33±6% of the control value (FIG. 29, left panel). DSS was removed by aspirating the medium and replacing it with fresh medium. AMP peptide 77-97 (8 μg/ml) or vehicle was added to the culture medium, and TER was measured 18 hr later. In the presence of the vehicle, TER increased from 33% to 66±7% of the control value, whereas cells exposed to AMP peptide reached a value 112±4% of control.
To determine if the cytoprotective effect of AMP peptide is mediated at the level of the actin cytoskeleton, C2 cell monolayers were exposed to cytochalasin D, an agent known to disrupt actin filaments and compromise barrier function (Madara et al., 1986).
To determine if AMP peptide could play a cytoprotective role in GDS, a study was carried out in C2 cell monolayers that were exposed to the PA-I lectin. […] Next the effect of AMP peptide was studied in the mouse model of P. aeruginosa-induced-GDS (Laughlin et al., 2000) using female Balb/c mice subjected to 30% hepatectomy, injection of a solution of living P. aeruginosa into the cecum, and food deprivation postoperatively. All 8 of the mice survived surgery.

[3] = tested on: protein kinase (PK) C zeta (ζ); assay: Phosphorylation of PKCζ in C2 cells (immunoblotting, confocal microscopy); type: cell-based, human; conditions: within 20 min
Text: To learn more about how AMP peptide could participate in the establishment of TJ structures and epithelial cell polarity during epithelial wound healing, attention was focused on protein kinase (PK) C zeta (ζ), an atypical PKC that appears to be required for assembly of TJs (Suzuki et al., 2001). PKCζ, presumably in its active form phospho-PKCζ, regulates TJs, apparently by interacting with several TJ-associated proteins including occludin, PAR-6, and PAR-3.

HeLa cells = assay: Growth of HeLa cells (non-GI control); type: cell-based, human; conditions: peptide up to 8 μg/ml
Method: as §2

SK-GT5 cells = assay: Growth of SK-GT5 gastroesophageal adenocarcinoma cells; type: cell-based; conditions: concentration-dependent
Method: as §2

Enterococcus faecalis = assay: Growth of other bacteria and fungi; type: cell-based
[4] = peptide 77-97 8 μg/ml + EGF 50 ng/ml

Sequence: LDALVKEKKLQGKGPGGPPPK [97–117, peptide 77-97 of the mature protein, same as 97-117 of the human precursor]
- proliferation together with EGF (HAE cells [1]; [4]): additive
- proliferation of HAE cells (in words) (HAE cells [1]; peptide 77-97 8 μg/ml, EGF 50 ng/ml, 4 days): stimulated proliferation
- migration from the wound edge compared with vehicle (HAE cells [2]; peptide 8 μg/ml, EGF 50 ng/ml, 24-72 hr): migrated further
- migration, peptide and EGF acting together (HAE cells [2]; [4]): markedly enhanced migration
- TER after PA-I lectin (in words) (Caco2/bbe (C2) cells; 4 hr): nearly unchanged
- decline of TER after PA-I lectin (Caco2/bbe (C2) cells; 4 hr, vehicle ~22%): 0-5%
- decline of TER of DSS-injured cultures (Caco2/bbe (C2) cells; DSS 4%, 45 min, peptide 8 μg/ml 1 day prior, vehicle ~70%): ~10%
- TER 18 hr after removal of DSS (Caco2/bbe (C2) cells; DSS 5% for 10 min, peptide 8 μg/ml, vehicle 66±7%): 112±4 % of control
- TER after cytochalasin D (Caco2/bbe (C2) cells; cytochalasin D 0.01 μg/ml, 2 hr, peptide 8 μg/ml 18 hr pretreatment, vehicle -34%, listed as AMP peptide): did not decline significantly; also recorded: prevented the decline
- decline of TER of injured cultures (Caco2/bbe (C2) cells; monochloramine 0.3 mM or indomethacin 0.1 mM, 90 min, peptide 8 μg/ml, vehicle ~35%): ~10%
- decline in TER after monochloramine (Caco2/bbe (C2) cells; monochloramine 0.3 mM, 45 min, rhAMP-18 100 nanomolar or peptide 3.7 micromolar pre-treatment, oxidant alone ~35%): ~10%
- effect on TER of non-injured cells (Caco2/bbe (C2) cells; peptide 8 μg/ml): did not alter
- phosphorylation of PKCζ [3]: increase in phosphorylation
- growth stimulation of HeLa cells (HeLa cells): does not stimulate growth
- growth stimulation of HeLa cells (HeLa cells; listed as AMP peptide): failure
- growth of SK-GT5 cells (SK-GT5 cells): stimulated
- growth of Enterococcus faecalis (Enterococcus faecalis): did not alter the growth
